PubChem BioAssay AID2060497 (Molecular Pharmacology Branch, DTP, NCI, 2025)

Test system: 317291-083-R-J1-PDC complex spheroids, viability
Assay: Anticancer human tumor 317291-083-R-J1-PDC patient-derived soft tissue sarcoma cell line growth inhibition [GQUAD]
Settings: for IC50: curve of first compound; for viability, T/C: stronger effect = lower value
Outline: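 Tumor cells were grown as complex spheroids with HUVEC endothelial cells and mesenchymal stem cells as stroma. G-quadruplex stabilizers were combined with targeted agents over half-log dilutions from near the clinical Cmax, or from 10 microM.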

[1] = second compound 0.0316 µM, first compound 0.0316 µM
[2] = second compound 0.0316 µM, first compound 0.1 µM
[3] = second compound 0.0316 µM, first compound 0.316 µM
[4] = second compound 0.0316 µM, first compound 1 µM
[5] = second compound 0.0316 µM, first compound 3.16 µM
[6] = second compound 0.0316 µM, first compound 10 µM
[7] = second compound 0.1 µM, first compound 0.0316 µM
[8] = second compound 0.1 µM, first compound 0.1 µM
[9] = second compound 0.1 µM, first compound 0.316 µM
[10] = second compound 0.1 µM, first compound 1 µM
[11] = second compound 0.1 µM, first compound 3.16 µM
[12] = second compound 0.1 µM, first compound 10 µM
[13] = second compound 0.316 µM, first compound 0.0316 µM
[14] = second compound 0.316 µM, first compound 0.1 µM
[15] = second compound 0.316 µM, first compound 0.316 µM
[16] = second compound 0.316 µM, first compound 1 µM
[17] = second compound 0.316 µM, first compound 3.16 µM
[18] = second compound 0.316 µM, first compound 10 µM
[19] = second compound 1 µM, first compound 0.0316 µM
[20] = second compound 1 µM, first compound 0.1 µM
[21] = second compound 1 µM, first compound 0.316 µM
[22] = second compound 1 µM, first compound 1 µM
[23] = second compound 1 µM, first compound 3.16 µM
[24] = second compound 1 µM, first compound 10 µM
[25] = second compound 3.16 µM, first compound 0.0316 µM
[26] = second compound 3.16 µM, first compound 0.1 µM
[27] = second compound 3.16 µM, first compound 0.316 µM
[28] = second compound 3.16 µM, first compound 1 µM
[29] = second compound 3.16 µM, first compound 3.16 µM
[30] = second compound 3.16 µM, first compound 10 µM
[31] = second compound 10 µM, first compound 0.0316 µM
[32] = second compound 10 µM, first compound 0.1 µM
[33] = second compound 10 µM, first compound 0.316 µM
[34] = second compound 10 µM, first compound 1 µM
[35] = second compound 10 µM, first compound 3.16 µM
[36] = second compound 10 µM, first compound 10 µM
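Further: spheroids exposed to compounds for one week before readout.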
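Wherever viability, T/C is given: percent viability relative to DMSO vehicle wells taken as 100%.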

SMILES: COc1cccc2c1C(=O)c1c(O)c3c(c(O)c1C2=O)CC(O)(C(=O)CO)CC3OC1CC(N)C(O)C(C)O1 (stereo unspecified) + Cc1[nH]c2ccc(F)cc2c1-c1nc2c3cccnc3c3ncccc3c2[nH]1
- IC50 (second compound 0.0316 µM): 81 nM
- IC50 (second compound 0.1 µM): 72.1 nM
- IC50 (second compound 0.316 µM): 77.4 nM
- IC50 (second compound 1 µM): 135 nM
- IC50 (second compound 3.16 µM): 65.5 nM
- IC50 (second compound 10 µM): 65.2 nM
- viability, T/C [1]: 112%
- viability, T/C [2]: 31.8%
- viability, T/C [3]: 21.9%
- viability, T/C [4]: 9.79%
- viability, T/C [5]: 0.88%
- viability, T/C [6]: 4.17%
- viability, T/C [7]: 80.3%
- viability, T/C [8]: 35.4%
- viability, T/C [9]: 21.6%
- viability, T/C [10]: 8.91%
- viability, T/C [11]: 1.29%
- viability, T/C [12]: 2.78%
- viability, T/C [13]: 88.3%
- viability, T/C [14]: 36.5%
- viability, T/C [15]: 19.7%
- viability, T/C [16]: 13.5%
- viability, T/C [17]: 1.55%
- viability, T/C [18]: 3.24%
- viability, T/C [19]: 89.8%
- viability, T/C [20]: 60.3%
- viability, T/C [21]: 21.3%
- viability, T/C [22]: 11.1%
- viability, T/C [23]: 1.17%
- viability, T/C [24]: 1.78%
- viability, T/C [25]: 77%
- viability, T/C [26]: 31.2%
- viability, T/C [27]: 18%
- viability, T/C [28]: 16.5%
- viability, T/C [29]: 1.5%
- viability, T/C [30]: 1.98%
- viability, T/C [31]: 68.3%
- viability, T/C [32]: 39.3%
- viability, T/C [33]: 16.9%
- viability, T/C [34]: 8.13%
- viability, T/C [35]: 1.49%
- viability, T/C [36]: 2.3%

SMILES: CCc1c2c(nc3ccc(O)cc13)-c1cc3c(c(=O)n1C2)COC(=O)[C@]3(O)CC + Cc1[nH]c2ccc(F)cc2c1-c1nc2c3cccnc3c3ncccc3c2[nH]1
- IC50 (second compound 0.0316 µM): 1.69 nM
- IC50 (second compound 0.1 µM): 1.59 nM
- IC50 (second compound 0.316 µM): 1.51 nM
- IC50 (second compound 1 µM): 1.76 nM
- IC50 (second compound 3.16 µM): 1.46 nM
- IC50 (second compound 10 µM): < 0.999 nM
- viability, T/C (second compound 0.0316 µM, first compound 0.000999 µM): 71.4%
- viability, T/C (second compound 0.0316 µM, first compound 0.00316 µM): 23.9%
- viability, T/C (second compound 0.0316 µM, first compound 0.00999 µM): 12.8%
- viability, T/C [1]: 8.37%
- viability, T/C (second compound 0.0316 µM, first compound 0.0999 µM): 6.91%
- viability, T/C [3]: 4.31%
- viability, T/C (second compound 0.1 µM, first compound 0.000999 µM): 70.2%
- viability, T/C (second compound 0.1 µM, first compound 0.00316 µM): 19.9%
- viability, T/C (second compound 0.1 µM, first compound 0.00999 µM): 8.9%
- viability, T/C [7]: 10%
- viability, T/C (second compound 0.1 µM, first compound 0.0999 µM): 7.96%
- viability, T/C [9]: 3.98%
- viability, T/C (second compound 0.316 µM, first compound 0.000999 µM): 66.7%
- viability, T/C (second compound 0.316 µM, first compound 0.00316 µM): 18.4%
- viability, T/C (second compound 0.316 µM, first compound 0.00999 µM): 16.5%
- viability, T/C [13]: 8.55%
- viability, T/C (second compound 0.316 µM, first compound 0.0999 µM): 6.58%
- viability, T/C [15]: 4.87%
- viability, T/C (second compound 1 µM, first compound 0.000999 µM): 75.8%
- viability, T/C (second compound 1 µM, first compound 0.00316 µM): 22.1%
- viability, T/C (second compound 1 µM, first compound 0.00999 µM): 14.6%
- viability, T/C [19]: 9.41%
- viability, T/C (second compound 1 µM, first compound 0.0999 µM): 6.65%
- viability, T/C [21]: 5.39%
- viability, T/C (second compound 3.16 µM, first compound 0.000999 µM): 65.4%
- viability, T/C (second compound 3.16 µM, first compound 0.00316 µM): 18.1%
- viability, T/C (second compound 3.16 µM, first compound 0.00999 µM): 8.2%
- viability, T/C [25]: 8.72%
- viability, T/C (second compound 3.16 µM, first compound 0.0999 µM): 6.44%
- viability, T/C [27]: 4.32%
- viability, T/C (second compound 10 µM, first compound 0.000999 µM): 37.7%
- viability, T/C (second compound 10 µM, first compound 0.00316 µM): 14.2%
- viability, T/C (second compound 10 µM, first compound 0.00999 µM): 9.41%
- viability, T/C [31]: 9.06%
- viability, T/C (second compound 10 µM, first compound 0.0999 µM): 5.65%
- viability, T/C [33]: 7.19%

SMILES: Cc1cccc(N(C)C(=O)C2C(O)CCN2c2nc(C)cc(C(F)(F)F)c2C#N)c1 (stereo unspecified) + Cc1[nH]c2ccc(F)cc2c1-c1nc2c3cccnc3c3ncccc3c2[nH]1
- IC50 (second compound 0.0316 µM): > 10000 nM
- IC50 (second compound 0.1 µM): > 10000 nM
- IC50 (second compound 0.316 µM): > 10000 nM
- IC50 (second compound 1 µM): > 10000 nM
- IC50 (second compound 3.16 µM): > 10000 nM
- IC50 (second compound 10 µM): > 10000 nM
- viability, T/C [1]: 112%
- viability, T/C [2]: 113%
- viability, T/C [3]: 105%
- viability, T/C [4]: 120%
- viability, T/C [5]: 100%
- viability, T/C [6]: 91.9%
- viability, T/C [7]: 117%
- viability, T/C [8]: 95.1%
- viability, T/C [9]: 118%
- viability, T/C [10]: 104%
- viability, T/C [11]: 121%
- viability, T/C [12]: 87.7%
- viability, T/C [13]: 102%
- viability, T/C [14]: 111%
- viability, T/C [15]: 102%
- viability, T/C [16]: 113%
- viability, T/C [17]: 121%
- viability, T/C [18]: 93.4%
- viability, T/C [19]: 126%
- viability, T/C [20]: 112%
- viability, T/C [21]: 121%
- viability, T/C [22]: 111%
- viability, T/C [23]: 102%
- viability, T/C [24]: 86.7%
- viability, T/C [25]: 111%
- viability, T/C [26]: 113%
- viability, T/C [27]: 107%
- viability, T/C [28]: 110%
- viability, T/C [29]: 111%
- viability, T/C [30]: 69%
- viability, T/C [31]: 95.1%
- viability, T/C [32]: 89.6%
- viability, T/C [33]: 101%
- viability, T/C [34]: 104%
- viability, T/C [35]: 92.5%
- viability, T/C [36]: 108%
